Data as given in paper PMC4893628, “Chalcone-based Selective Inhibitors of a C4 Plant Key Enzyme as Novel Potential Herbicides” (Scientific Reports, 2016).
Like-named read-outs stand apart in the source and are kept apart here.

Tests used:
Assay type in all cases: cell-based
Bacillus subtilis 168 = assay: Bacterial growth in microscale cultivation, B. subtilis
Procedure, shortened: (§1)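 Inhibitors in DMSO were added to the medium, at a maximum of 400 μM for trans-chalcone and 100 μM for 2'-hydroxychalcone. Cultures were seeded at OD600 0.5, or 0.25 for B. subtilis, and growth was followed as 620 nm backscatter in a BioLector at 1200 rpm. Final backscatter, growth rate and lag phase were compared with DMSO controls.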

[1] = tested on: Escherichia coli K-12 MG1655; assay: Bacterial growth in microscale cultivation, E. coli; conditions: for activity at 0.3 µM / activity at 3 µM / activity at 30 µM: Escherichia coli
Procedure, shortened: as §1

[2] = tested on: Corynebacterium glutamicum ATCC13032; assay: Bacterial growth in microscale cultivation, C. glutamicum; conditions: for activity at 0.3 µM / activity at 3 µM / activity at 30 µM: Corynebacterium glutamicum
Procedure, shortened: as §1

[3] = complex medium, 0.3 µM, relative to control
[4] = complex medium, 3 µM, relative to control
[5] = complex medium, 30 µM, relative to control
[6] = minimal medium, 0.3 µM, relative to control
[7] = minimal medium, 3 µM, relative to control
[8] = minimal medium, 30 µM, relative to control

## O=C(/C=C/c1cc(O)c(O)c(O)c1)c1ccc(O)cc1O [Compound 9, 2′,4′,3,4,5-Pentahydroxychalcone]
Bacillus subtilis 168; Bacillus subtilis, 168, complex medium, 0.3 µM, relative to control, read-out: Final Backscatter
  activity at 0.3 µM: 100%
Bacillus subtilis 168; Bacillus subtilis, 168, complex medium, 0.3 µM, relative to control, read-out: Growth rate
  activity at 0.3 µM: 111%
Bacillus subtilis 168; Bacillus subtilis, 168, complex medium, 3 µM, relative to control, read-out: Final Backscatter
  activity at 3 µM: 99.7%
Bacillus subtilis 168; Bacillus subtilis, 168, complex medium, 3 µM, relative to control, read-out: Growth rate
  activity at 3 µM: 112%
Bacillus subtilis 168; Bacillus subtilis, 168, complex medium, 30 µM, relative to control, read-out: Final Backscatter
  activity at 30 µM: 98.6%
Bacillus subtilis 168; Bacillus subtilis, 168, complex medium, 30 µM, relative to control, read-out: Growth rate
  activity at 30 µM: 104%
Bacillus subtilis 168; Bacillus subtilis, 168, minimal medium, 0.3 µM, relative to control, read-out: Final Backscatter
  activity at 0.3 µM: 104%
Bacillus subtilis 168; Bacillus subtilis, 168, minimal medium, 0.3 µM, relative to control, read-out: Growth rate
  activity at 0.3 µM: 99.6%
Bacillus subtilis 168; Bacillus subtilis, 168, minimal medium, 3 µM, relative to control, read-out: Final Backscatter
  activity at 3 µM: 103%
Bacillus subtilis 168; Bacillus subtilis, 168, minimal medium, 3 µM, relative to control, read-out: Growth rate
  activity at 3 µM: 101%
Bacillus subtilis 168; Bacillus subtilis, 168, minimal medium, 30 µM, relative to control, read-out: Final Backscatter
  activity at 30 µM: 107%
Bacillus subtilis 168; Bacillus subtilis, 168, minimal medium, 30 µM, relative to control, read-out: Growth rate
  activity at 30 µM: 90.7%
Bacillus subtilis 168; [3]
  Lag Phase: 100,0%
Bacillus subtilis 168; [4]
  Lag Phase: 100,0%
Bacillus subtilis 168; [5]
  Lag Phase: 97,4%
Bacillus subtilis 168; [6]
  Lag Phase: 91,7%
Bacillus subtilis 168; [7]
  Lag Phase: 98,8%
Bacillus subtilis 168; [8]
  Lag Phase: 94,1%
[1]; MG1655, complex medium, 0.3 µM, relative to control, read-out: Final Backscatter
  activity at 0.3 µM: 100%
[1]; MG1655, complex medium, 0.3 µM, relative to control, read-out: Growth rate
  activity at 0.3 µM: 103%
[1]; MG1655, complex medium, 3 µM, relative to control, read-out: Final Backscatter
  activity at 3 µM: 99.7%
[1]; MG1655, complex medium, 3 µM, relative to control, read-out: Growth rate
  activity at 3 µM: 95.4%
[1]; MG1655, complex medium, 30 µM, relative to control, read-out: Final Backscatter
  activity at 30 µM: 98.2%
[1]; MG1655, complex medium, 30 µM, relative to control, read-out: Growth rate
  activity at 30 µM: 87.6%
[1]; MG1655, minimal medium, 0.3 µM, relative to control, read-out: Final Backscatter
  activity at 0.3 µM: 100%
[1]; MG1655, minimal medium, 0.3 µM, relative to control, read-out: Growth rate
  activity at 0.3 µM: 106%
[1]; MG1655, minimal medium, 3 µM, relative to control, read-out: Final Backscatter
  activity at 3 µM: 101%
[1]; MG1655, minimal medium, 3 µM, relative to control, read-out: Growth rate
  activity at 3 µM: 110%
[1]; MG1655, minimal medium, 30 µM, relative to control, read-out: Final Backscatter
  activity at 30 µM: 102%
[1]; MG1655, minimal medium, 30 µM, relative to control, read-out: Growth rate
  activity at 30 µM: 110%
[1]; [3]
  Lag Phase: 103,4%
[1]; [4]
  Lag Phase: 103,4%
[1]; [5]
  Lag Phase: 110,3%
[1]; [6]
  Lag Phase: 100,0%
[1]; [7]
  Lag Phase: 98,2%
[1]; [8]
  Lag Phase: 96,4%
[2]; ATCC13032, complex medium, 0.3 µM, relative to control, read-out: Final Backscatter
  activity at 0.3 µM: 99.6%
[2]; ATCC13032, complex medium, 0.3 µM, relative to control, read-out: Growth rate
  activity at 0.3 µM: 104%
[2]; ATCC13032, complex medium, 3 µM, relative to control, read-out: Final Backscatter
  activity at 3 µM: 102%
[2]; ATCC13032, complex medium, 3 µM, relative to control, read-out: Growth rate
  activity at 3 µM: 111%
[2]; ATCC13032, complex medium, 30 µM, relative to control, read-out: Final Backscatter
  activity at 30 µM: 96.7%
[2]; ATCC13032, complex medium, 30 µM, relative to control, read-out: Growth rate
  activity at 30 µM: 112%
[2]; ATCC13032, minimal medium, 0.3 µM, relative to control, read-out: Final Backscatter
  activity at 0.3 µM: 99.9%
[2]; ATCC13032, minimal medium, 0.3 µM, relative to control, read-out: Growth rate
  activity at 0.3 µM: 104%
[2]; ATCC13032, minimal medium, 3 µM, relative to control, read-out: Final Backscatter
  activity at 3 µM: 96.9%
[2]; ATCC13032, minimal medium, 3 µM, relative to control, read-out: Growth rate
  activity at 3 µM: 103%
[2]; ATCC13032, minimal medium, 30 µM, relative to control, read-out: Final Backscatter
  activity at 30 µM: 97.7%
[2]; ATCC13032, minimal medium, 30 µM, relative to control, read-out: Growth rate
  activity at 30 µM: 97.3%
[2]; [3]
  Lag Phase: 98,5%
[2]; [4]
  Lag Phase: 98,0%
[2]; [5]
  Lag Phase: 94,5%
[2]; [6]
  Lag Phase: 98,6%
[2]; [7]
  Lag Phase: 98,6%
[2]; [8]
  Lag Phase: 98,6%

## O=C(/C=C/c1ccccc1)c1ccc(O)c(O)c1O [Compound 10, 2′,3′,4′-Trihydroxychalcone]
Bacillus subtilis 168; Bacillus subtilis, 168, read-out: Final Backscatter, complex medium, 0.3 µM, relative to control
  activity at 0.3 µM: 102%
Bacillus subtilis 168; Bacillus subtilis, 168, read-out: Final Backscatter, complex medium, 3 µM, relative to control
  activity at 3 µM: 101%
Bacillus subtilis 168; Bacillus subtilis, 168, read-out: Final Backscatter, complex medium, 30 µM, relative to control
  activity at 30 µM: 103%
Bacillus subtilis 168; Bacillus subtilis, 168, read-out: Final Backscatter, minimal medium, 0.3 µM, relative to control
  activity at 0.3 µM: 108%
Bacillus subtilis 168; Bacillus subtilis, 168, read-out: Final Backscatter, minimal medium, 3 µM, relative to control
  activity at 3 µM: 110%
Bacillus subtilis 168; Bacillus subtilis, 168, read-out: Final Backscatter, minimal medium, 30 µM, relative to control
  activity at 30 µM: 106%
Bacillus subtilis 168; Bacillus subtilis, 168, read-out: Growth rate, complex medium, 0.3 µM, relative to control
  activity at 0.3 µM: 106%
Bacillus subtilis 168; Bacillus subtilis, 168, read-out: Growth rate, complex medium, 3 µM, relative to control
  activity at 3 µM: 109%
Bacillus subtilis 168; Bacillus subtilis, 168, read-out: Growth rate, complex medium, 30 µM, relative to control
  activity at 30 µM: 112%
Bacillus subtilis 168; Bacillus subtilis, 168, read-out: Growth rate, minimal medium, 0.3 µM, relative to control
  activity at 0.3 µM: 88.5%
Bacillus subtilis 168; Bacillus subtilis, 168, read-out: Growth rate, minimal medium, 3 µM, relative to control
  activity at 3 µM: 94.4%
Bacillus subtilis 168; Bacillus subtilis, 168, read-out: Growth rate, minimal medium, 30 µM, relative to control
  activity at 30 µM: 90.6%
Bacillus subtilis 168; [3]
  Lag Phase: 100,0%
Bacillus subtilis 168; [4]
  Lag Phase: 104,2%
Bacillus subtilis 168; [5]
  Lag Phase: 97,9%
Bacillus subtilis 168; [6]
  Lag Phase: 98,3%
Bacillus subtilis 168; [7]
  Lag Phase: 96,6%
Bacillus subtilis 168; [8]
  Lag Phase: 99,3%
[1]; MG1655, read-out: Final Backscatter, complex medium, 0.3 µM, relative to control
  activity at 0.3 µM: 106%
[1]; MG1655, read-out: Final Backscatter, complex medium, 3 µM, relative to control
  activity at 3 µM: 106%
[1]; MG1655, read-out: Final Backscatter, complex medium, 30 µM, relative to control
  activity at 30 µM: 98.9%
[1]; MG1655, read-out: Final Backscatter, minimal medium, 0.3 µM, relative to control
  activity at 0.3 µM: 105%
[1]; MG1655, read-out: Final Backscatter, minimal medium, 3 µM, relative to control
  activity at 3 µM: 105%
[1]; MG1655, read-out: Final Backscatter, minimal medium, 30 µM, relative to control
  activity at 30 µM: 109%
[1]; MG1655, read-out: Growth rate, complex medium, 0.3 µM, relative to control
  activity at 0.3 µM: 109%
[1]; MG1655, read-out: Growth rate, complex medium, 3 µM, relative to control
  activity at 3 µM: 99.8%
[1]; MG1655, read-out: Growth rate, complex medium, 30 µM, relative to control
  activity at 30 µM: 104%
[1]; MG1655, read-out: Growth rate, minimal medium, 0.3 µM, relative to control
  activity at 0.3 µM: 96.3%
[1]; MG1655, read-out: Growth rate, minimal medium, 3 µM, relative to control
  activity at 3 µM: 92%
[1]; MG1655, read-out: Growth rate, minimal medium, 30 µM, relative to control
  activity at 30 µM: 99.2%
[1]; [3]
  Lag Phase: 92,1%
[1]; [4]
  Lag Phase: 94,8%
[1]; [5]
  Lag Phase: 118,4%
[1]; [6]
  Lag Phase: 92,1%
[1]; [7]
  Lag Phase: 90,6%
[1]; [8]
  Lag Phase: 92,1%
[2]; ATCC13032, read-out: Final Backscatter, complex medium, 0.3 µM, relative to control
  activity at 0.3 µM: 105%
[2]; ATCC13032, read-out: Final Backscatter, complex medium, 3 µM, relative to control
  activity at 3 µM: 109%
[2]; ATCC13032, read-out: Final Backscatter, complex medium, 30 µM, relative to control
  activity at 30 µM: 110%
[2]; ATCC13032, read-out: Final Backscatter, minimal medium, 0.3 µM, relative to control
  activity at 0.3 µM: 103%
[2]; ATCC13032, read-out: Final Backscatter, minimal medium, 3 µM, relative to control
  activity at 3 µM: 104%
[2]; ATCC13032, read-out: Final Backscatter, minimal medium, 30 µM, relative to control
  activity at 30 µM: 104%
[2]; ATCC13032, read-out: Growth rate, complex medium, 0.3 µM, relative to control
  activity at 0.3 µM: 106%
[2]; ATCC13032, read-out: Growth rate, complex medium, 3 µM, relative to control
  activity at 3 µM: 112%
[2]; ATCC13032, read-out: Growth rate, complex medium, 30 µM, relative to control
  activity at 30 µM: 118%
[2]; ATCC13032, read-out: Growth rate, minimal medium, 0.3 µM, relative to control
  activity at 0.3 µM: 104%
[2]; ATCC13032, read-out: Growth rate, minimal medium, 3 µM, relative to control
  activity at 3 µM: 103%
[2]; ATCC13032, read-out: Growth rate, minimal medium, 30 µM, relative to control
  activity at 30 µM: 99.3%
[2]; [3]
  Lag Phase: 100,0%
[2]; [4]
  Lag Phase: 97,8%
[2]; [5]
  Lag Phase: 94,9%
[2]; [6]
  Lag Phase: 97,9%
[2]; [7]
  Lag Phase: 98,6%
[2]; [8]
  Lag Phase: 102,1%
